Laboratory results as given in patent US20140303164A1, “THERAPEUTIC COMPOUNDS” (Gilead Sciences, Inc., priority 2013, published 2014).

Key:
HIV-IIIb = test: Test A: Antiviral Assay in MT4 Cells; format: cell-based, HIV-1; settings: Human immunodeficiency virus 1, IIIB, MT4, 120 h; for inhibition at 0.2 µM: read-out: % inhibition at 0.2 μM; for inhibition at 2 µM: read-out: % inhibition at 2 μM
Procedure: Test A: Antiviral Assay in MT4 Cells
MT-4 cells were next mixed with HIV-IIIb at an m.o.i of 0.003 for 1 hour, after which time 35 μL of virus/cell mixture (2000 cells) was immediately added to each well containing 40 μL of diluted compound. The plates were then incubated at 37° C. for 5 days. […] Cell lysis was carried out by incubating at room temperature for 10 min and then chemiluminescence was read.

[1] = Test B: Cytotoxicity Assay; format: cell-based; settings: human, uninfected MT-4 cells, same protocol as Test A
In short: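 Uninfected MT-4 cells (2000 per well) incubated with diluted compound at 37° C. for 5 days, following the antiviral protocol without HIV-IIIb.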

| Structure (SMILES) | inhibition at 0.2 µM (HIV-IIIb) | inhibition at 2 µM (HIV-IIIb) | CC50 at 5 days [1] |
| --- | --- | --- | --- |
| Cn1nc(NS(C)(=O)=O)c2cccc(-c3ccc(C#CC(C)(C)O)nc3[C@H](Cc3cc(F)cc(F)c3)NC(=O)Cn3nc(C(F)(F)F)c4c3C(F)(F)[C@@H]3C[C@H]43)c21 [Compound 33F, 2-((3bS,4aR)-5,5-difluoro-3-(trifluoromethyl)-3b,4,4a,5-tetrahydro-1H-cyclopropa[3,4]cyclopenta[1,2-c]pyrazol-1-yl)-N—((S)-2-(3,5-difluorophenyl)-1-(6-(3-hydroxy-3-methylbut-1-yn-1-yl)-3-(1-methyl-3-(methylsulfonamido)-1H-indazol-7-yl)pyridin-2-yl)ethyl)acetamide] | 93% | 93% | 12.9 µM |
| CC(C)(O)C#Cc1ncc(-c2ccc(F)c(C(N)=O)c2)c([C@H](Cc2cc(F)cc(F)c2)NC(=O)Cn2nc(C(F)(F)F)c3c2C(F)(F)[C@@H]2C[C@H]32)n1 [Compound 23B, 5-(4-((S)-1-(2-((3bS,4aR)-5,5-difluoro-3-(trifluoromethyl)-3b,4,4a,5-tetrahydro-1H-cyclopropa[3,4]cyclopenta[1,2-c]pyrazol-1-yl)acetamido)-2-(3,5-difluorophenyl)ethyl)-2-(3-hydroxy-3-methylbut-1-yn-1-yl)pyrimidin-5-yl)-2-fluorobenzamide] | 83% | 88% | 7.62 µM |
| Cn1nc(N)c2cccc(-c3ccc(C#CC(C)(C)O)nc3[C@H](Cc3cc(F)cc(F)c3)NC(=O)Cn3nc(C(F)(F)F)c4c3C(F)(F)[C@@H]3C[C@H]43)c21 [Compound 25, N—((S)-1-(3-(3-amino-1-methyl-1H-indazol-7-yl)-6-(3-hydroxy-3-methylbut-1-yn-1-yl)pyridin-2-yl)-2-(3,5-difluorophenyl)ethyl)-2-((3b-S,4aR)-5,5-difluoro-3-(trifluoromethyl)-3b,4,4a,5-tetrahydro-1H-cyclopropa[3,4]cyclopenta[1,2-c]pyrazol-1-yl)acetamide] | 89% | 89% | 9.14 µM |
| Cn1nc(NS(C)(=O)=O)c2c(Cl)ccc(-c3cc(-c4cccnc4)cnc3[C@H](Cc3cc(F)cc(F)c3)NC(=O)Cn3nc(C(F)F)c4c3C(F)(F)[C@@H]3C[C@H]43)c21 [Compound 185C, N—((S)-1-(5-(4-chloro-1-methyl-3-(methylsulfonamido)-1H-indazol-7-yl)-[3,3′-bipyridin]-6-yl)-2-(3,5-difluorophenyl)ethyl)-2-((3bS,4aR)-3-(difluoromethyl)-5,5-difluoro-3b,4,4a,5-tetrahydro-1H-cyclopropa[3,4]cyclopenta[1,2-c]pyrazol-1-yl)acetamide] | 89% | 89% | 18.2 µM |
| Cn1nc(NS(C)(=O)=O)c2c(Cl)ccc(-c3ccc(C#CC(C)(O)CNC(=O)OC(C)(C)C)nc3[C@H](Cc3cc(F)cc(F)c3)NC(=O)Cn3nc(C(F)(F)F)c4c3C(F)(F)[C@@H]3C[C@H]43)c21 (stereo partly drawn) [Compound 184, tert-butyl (4-(5-(4-chloro-1-methyl-3-(methylsulfonamido)-1H-indazol-7-yl)-6-((S)-1-(2-((3bS,4aR)-5,5-difluoro-3-(trifluoromethyl)-3b,4,4a,5-tetrahydro-1H-cyclopropa[3,4]cyclopenta[1,2-c]pyrazol-1-yl)acetamido)-2-(3,5-difluorophenyl)ethyl)pyridin-2-yl)-2-hydroxy-2-methylbut-3-yn-1-yl)carbamate] | 90% | 90% | 7.69 µM |
| CNCC(=O)Nc1nn(C)c2c(-c3ccc(C#CC(C)(C)O)nc3[C@H](Cc3cc(F)cc(F)c3)NC(=O)Cn3nc(C(F)F)c4c3C(F)(F)[C@@H]3C[C@H]43)ccc(Cl)c12 [Compound 101, N—((S)-1-(3-(4-chloro-1-methyl-3-(2-(methylamino)acetamido)-1H-indazol-7-yl)-6-(3-hydroxy-3-methylbut-1-yn-1-yl)pyridin-2-yl)-2-(3,5-difluorophenyl)ethyl)-2-((3bS,4aR)-3-(difluoromethyl)-5,5-difluoro-3b,4,4a,5-tetrahydro-1H-cyclopropa[3,4]cyclopenta[1,2-c]pyrazol-1-yl)acetamide] | 95% | 95% | 6.53 µM |
